# Experimental data from patent US20180044672A1, “Pericyte Long Non-Coding RNAs” (Johann Wolfgang Goethe-Universität Frankfurt am Main, priority 2015, published 2018).
# Entries after “also recorded” stand apart in the source; their conditions may differ.
# Legend:
# [1] = PC viability by MTT assay; settings: human
# human pericytes (PC) = experiment: PC viability by MTT assay
# TYKRIL = TYKRIL expression in human pericytes by qRT-PCR; assay type: cell-based; settings: for TYKRIL expression levels in PC: LNA GapmeR 50 nmol/l, 48 h after transfection, vs scrambled control
# Experimental: (§1) Cells were grown to 60-80% confluency and were transfected for 4 hours in Optimem Medium using Lipfectamine (both from Life technologies, Carlsbad, Calif., USA) with 50 nmol/l LNA GapmeR (Exiqon, Vedbaek, Denmarkt) according to the manufacturer's instructions. Controls were transfected with scrambled LNA GapmeR control. Four hours after LNA Gapmer Transfection, Optimem Medium was exchanged with normal cell culture medium. All experimental manipulations were carried out 48 hours after transfection.
# (§2) Total RNA from PC was isolated using RNeasy Mini Kits (Qiagen, Hilden, Germany) as recommended by the manufacturer including a DNA digestion step. Nuclear and cytosolic fractions were prepared as documented elsewhere 34. 500-1000 ng RNA was reversely transcribed with random hexamer primers (ThermoScientific, Waltham, USA) by MulV reverse transcriptase (Lifetechnologies) in 40 μl reaction volume. Fast SYBR green or SYBR green (Applied Biosystems, Forster City, USA) and cDNA were used for qRT-PCR. A Viia7 or StepOnePlus from Applied Biosystems was used. CT values were normalized against ribosomal RPLP0. Relative gene expression levels were determined by the formula: 2-deltaCT; deltaCT=CTtarget−CTcontrol.
# PDGFRβ [2] = experiment: PDGFRβ expression in human pericytes by qPCR and immunoblotting; assay type: cell-based; settings: for PDGFRβ mRNA (qPCR) / PDGFRβ protein levels (immunoblotting): upon TYKRIL silencing by LNA GapmeRs
# Experimental: as §1, §2
# Standard immunofluorescent staining procedures were carried out as described before 35-37. In brief, cells were washed with PBS, fixed in ice cold acetone for about 5 minutes. After washing cells were blocked for 2 hours at room temperature with 5% donkey serum (Dianova, Hambur, Germany), 0.3% Triton X-100 in PBS. Primary antibodies were incubated overnight in PBS containing 2% BSA, 0.1% Triton X-100. Secondary antibodies and Hoechst (Lifetechnologies, 1/1000) were incubated in 2% BSA, 0.1% azide for another 2 hours. For SDS Page protein isolation cells were washed once with ice-cold PBS, snap frozen in liquid nitrogen and RIPA-buffer (Thermo Scientific, Rockford, USA) supplemented with protease inhibitor (Roche Diagnostics) was applied. Cells were then scraped off with an ice cold rubber policeman and incubated for 45 minutes on ice under agitation. Subsequently probes were centrifuged for 10 minutes at 5000 RPM at 4° C. The supernatant was transferred into ice cold vials and protein concentration was determined by performing a Bradford assay with RotiQuant (Carl Roth, Karlsruhe, Germany) according to the manufacturer's instructions. Protein samples were mixed with an equal volume of 2× Laemmli buffer (Sigma Aldrich). Gels (Mini-Protean TGX, BioRad) were loaded with 20-30 μg protein per lane. SDS page was performed for 1 hour at 100V in […] (BioRad). Western Blotting was performed using a Pierce G2 Fast Blotter according to the manufacturer's instructions (ThermoScientific).
# human pericytes = experiment: RNA Seq upon TYKRIL knockdown in pericytes; assay type: cell-based; settings: upon TYKRIL knockdown with LNA GapmeRs
# Experimental: RNA deep sequencing was performed by analyzing ribosomal depleted total RNA from human Pericytes. RNA was isolated using a RNeasy Mini Kit (Qiagen) according to the manufacturer's instructions including DNA digestion. Subsequently RNA was fragmented and primed for cDNA synthesis. Libraries were created using a TruSeq RNA Ribo-Zero Globin kit (from Illumina) as recommended by the manufacturer. A Illumina HiSeq 2000 flowcell was used for sequencing. lncRNA annotation was done based on the NONCODE database (noncode.org).
# mTYKRIL = experiment: Murine TYKRIL knockdown in vivo, mTYKRIL in organs; design: species or system mouse; settings: mice, 20 mg/kg intraperitoneally, single shot, 48 h
# Experimental: (§3) HPLC purified. LNA GapmeRs were injected intraperitoneally at a dosage of 20 mg/kg bodyweight. 48 hours after injection, mice were sacrificed by isoflurane overdose and cardially perfused with PBS at a steady flow of 9 ml/min. Subsequently organs were removed and snap forzen for RNA and protein isolation.
# PDGFRβ [3] = experiment: Murine TYKRIL knockdown in vivo, PDGFRβ in organs; design: species or system mouse; settings: mice, 20 mg/kg intraperitoneally, single shot, 48 h
# Experimental: as §3
# [4] = p53 gain of function by doxorubicin treatment
compound,measurement,setting,value
Cc1ccc(NC(=O)c2ccc(CN3CCN(C)CC3)cc2)cc1Nc1nccc(-c2cccnc2)n1 [Imatinib],"cytotoxicity at 24 h, 1 μM",[1]; human pericytes (PC),~20%
same,cytotoxicity,[1]; human pericytes (PC) with TYKRIL silenced by LNA GapmeR,~45%
same,"PC viability (MTT), in words","human pericytes (PC); imatinib 1 μM, 24 h, compared with solvent PBS",significantly decreased PC viability
same,"PC viability (MTT), in words","human pericytes (PC); imatinib upon TYKRIL silencing, compared with scramble control transfected PC",significantly more reduced
"COc1cccc2c1C(=O)c1c(O)c3c(c(O)c1C2=O)C[C@@](O)(C(=O)CO)C[C@@H]3O[C@H]1C[C@H](N)[C@H](O)[C@H](C)O1 [doxorubicin, reference compound]",TYKRIL expression,TYKRIL; [4],loss of TYKRIL; also recorded: downregulation
same,PDGFRβ on RNA level,PDGFRβ [2]; [4],downregulation of PDGFRβ; also recorded: significant decline
same,PDGFRβ on protein level,PDGFRβ [2]; [4],downregulation of PDGFRβ; also recorded: significant decline
"LNA#1: LNA GapmeR against human TYKRIL, 5′-3′: AGAGGTGATTAAGGT (LNA gapmer: LNA flanks around DNA gap, pattern and linkages not given here)",TYKRIL expression levels in PC,TYKRIL,significant reduction of TYKRIL
same,PDGFRβ mRNA (qPCR),PDGFRβ [2],loss of PDGFRβ
same,PDGFRβ protein levels (immunoblotting),PDGFRβ [2],loss of PDGFRβ
same,Pericyte differentiation state by RNA Seq,human pericytes,de-differentiation of Pericytes
"LNA#3: LNA GapmeR against human TYKRIL, 5′-3′: AGTGAAGGACAGAGGC (LNA gapmer: LNA flanks around DNA gap, pattern and linkages not given here)",TYKRIL expression levels in PC,TYKRIL,significant reduction of TYKRIL
same,PDGFRβ mRNA (qPCR),PDGFRβ [2],loss of PDGFRβ
same,PDGFRβ protein levels (immunoblotting),PDGFRβ [2],loss of PDGFRβ
same,Pericyte differentiation state by RNA Seq,human pericytes,de-differentiation of Pericytes
"mLNA#4: murine TYKRIL LNA Gapmer, SEQ ID NO: 12, GTCTGCACTTAATTAA (LNA gapmer, pattern and linkages not given here; listed as Mus musculus)",mTYKRIL (qPCR) in heart,mTYKRIL,downregulation
same,mTYKRIL in kidneys,mTYKRIL; 20 mg/kg,decreased; also recorded: downregulation
same,mTYKRIL in liver,mTYKRIL; 20 mg/kg,decreased; also recorded: downregulation
same,mTYKRIL in lungs,mTYKRIL; 20 mg/kg,decreased; also recorded: downregulation
same,mTYKRIL in spleen,mTYKRIL; 20 mg/kg,decreased; also recorded: downregulation
same,PDGFRβ (qPCR) in heart,PDGFRβ [3],downregulation
same,PDGFRβ protein level in heart,PDGFRβ [3],PDGFRβ loss
same,PDGFRβ in kidneys,PDGFRβ [3]; 20 mg/kg,decreased; also recorded: downregulation
same,PDGFRβ in liver,PDGFRβ [3]; 20 mg/kg,decreased; also recorded: downregulation
same,PDGFRβ in lungs,PDGFRβ [3]; 20 mg/kg,decreased; also recorded: downregulation
same,PDGFRβ in spleen,PDGFRβ [3]; 20 mg/kg,decreased; also recorded: downregulation
